Data taken from US12134769B2, “MicroRNA-198 as a tumor suppressor in ovarian cancer” (Baylor College of Medicine, priority 2011, dated 2024).

Legend:
AsPC1 cells = assay: NF-κB inhibitor assay, OCT-2 expression; format: cell-based, human; settings: FIG. 11B
MIA-MSLN cells = assay: NF-κB inhibitor assay, expression by real-time RT-PCR and western blot; format: cell-based, human
Method: Western blots were performed as previously described (Li et al., 2008). Membranes were probed with: anti-MSLN monoclonal antibody (1:1000) (Abcam); PBX-1 polyclonal antibody (1:1000) and Caspase 3 antibody (1:1000) (Cell Signaling); OCT-2 polyclonal antibody (1:400), and VCP polyclonal antibody (1:200) (Santa Cruz Biotechnology); or anti-β-actin, Tubulin, LaminA or GAPDH antibodies (1:10,000) (Sigma Aldrich). Secondary incubation was performed with horseradish peroxidase-linked secondary antibody (1:2,000) (anti-mouse, anti-goat or anti-rabbit) (Cell Signaling).
Differential expression of 95 miRNAs chosen for their potential roles in cancer, cell development, and apoptosis was analyzed by RT-PCR using the QuantiMir System from SBI System Biosciences in both MIA-V and MIA-MSLN cells. The array plate also included the U6 transcript as a normalization signal. cDNAs from different cell lines and tissue samples were mixed with SYBR® Green Mastermix (Bio-Rad Laboratories) plus the universal reverse primer. Specific primers (1 μl) were added to each well of the qPCR plate. Expression levels of each mature miRNA were evaluated using comparative threshold cycle (Ct) method as normalized to that of U6 (2—ΔCt). The expression level of miR-198 was measured in all subsequent experiments using the same method. Real-time RT PCR was performed as previously described for MSLN, ZEB1, PBX-1, and VCP (Li et al., 2008). The primer sequences used are as follows:
MIA-MSLN and MIA-V control cells were treated with 0, 12.5 or 25 μM of the IKK inhibitor Wedelolactone (Calbiochem). The cells were collected after 72 h and protein, RNA, and miRNA extracts were prepared and assayed accordingly.

## COc1cc(O)c2c(c1)oc(=O)c1c3cc(O)c(O)cc3oc21 [Wedelolactone]
AsPC1 cells
  OCT-2 expression: OCT-2 expression is blocked
MIA-MSLN cells; MIA-MSLN cells
  ZEB1 expression: completely blocked ZEB1 expression
MIA-MSLN cells; MIA-MSLN cells, compared to untreated controls, 72 h
  increase in miR-198 expression: ~17 fold
MIA-MSLN cells; MIA-MSLN cells, mRNA and protein levels
  OCT-2 expression: almost complete block in OCT-2 expression
MIA-MSLN cells; Wedelolactone inhibition of NF-κB, FIG. 3F
  PBX-1 expression: downregulation of PBX-1 expression
